Consider four molecules from ChEMBL document CHEMBL1671634, “Statins alone are ineffective in cerebral malaria but potentiate artesunate” (2008).

The subject of experiment [1] is Plasmodium falciparum. Description: Antimalarial activity against Plasmodium falciparum infected in mouse assessed as parasitemia at 20 mg/kg, ip, qd administered 4 days post infection for 3 days measured after 6 days (Rvb =8.7+/-1.4 %). In kind it is functional.
Experiment [2] deals with Plasmodium falciparum. Description: Antimalarial activity against Plasmodium falciparum infected in mouse assessed as mouse survival at 20 mg/kg, ip, qd administered 4 days post infection for 3 days measured after 6 days relative to control. In kind it is functional, organism-based. Also on record: dose 20 mg/kg.
In experiment [3] the test system is Plasmodium falciparum. Description: Antimalarial activity against Plasmodium falciparum infected in mouse assessed as parasitemia at 200 mg/kg, ip, qd administered 5 days post infection for 3 days measured after 6 days (Rvb =9.9+/-2.2 %). It is filed as functional.
Experiment [4] relates to Plasmodium falciparum. The experiment in a line: Antimalarial activity against Plasmodium falciparum infected in mouse assessed as mouse survival at 200 mg/kg, ip, qd administered 5 days post infection for 3 days measured after 6 days relative to control. It is filed as functional, organism-based. More on the design: dose 200 mg/kg.
The test system of experiment [5] is Plasmodium falciparum. Description: Antimalarial activity against Plasmodium falciparum infected in mouse assessed as mouse survival at 40 mg/kg, ip, qd administered 5 days post infection for 3 days measured after 6 days relative to control. It is filed as functional, organism-based. More on the design: dose 40 mg/kg.
Experiment [6] deals with Plasmodium falciparum. The experiment in a line: Antimalarial activity against Plasmodium falciparum infected in mouse assessed as parasitemia at 40 mg/kg, ip, qd administered 5 days post infection for 3 days measured after 6 days (Rvb =9.9+/-2.2 %). In kind it is functional.
Experiment [7] deals with Plasmodium falciparum. The experiment in a line: Antimalarial activity against Plasmodium falciparum infected in mouse assessed as parasitemia at 100 mg/kg, ip, qd administered 5 days post infection for 3 days measured after 6 days (Rvb =8.3+/-1.3 %). In kind it is functional.
For experiment [8], the system named is Plasmodium falciparum. The experiment in a line: Antimalarial activity against Plasmodium falciparum infected in mouse assessed as parasitemia at 20 mg/kg, ip, qd administered 5 days post infection for 3 days measured after 6 days (Rvb =8.3+/-1.3 %). In kind it is functional.
The test system of experiment [9] is Plasmodium falciparum. Description: Antimalarial activity against Plasmodium falciparum infected in mouse assessed as mouse survival at 100 mg/kg, ip, qd administered 5 days post infection for 3 days measured after 6 days relative to control. It is filed as functional, organism-based. More on the design: dose 100 mg/kg.
In experiment [10] the test system is Plasmodium falciparum. Description: Antimalarial activity against Plasmodium falciparum infected in mouse assessed as mouse survival at 20 mg/kg, ip, qd administered 5 days post infection for 3 days measured after 6 days relative to control. Also on record: dose 20 mg/kg. It is filed as functional, organism-based.
Experiment [11] has as its system Plasmodium falciparum. Description: Antimalarial activity against Plasmodium falciparum infected in mouse assessed as parasitemia at 40 mg/kg, ip, qd administered 3 days post infection for 6 days measured after 6 days (Rvb =8.0+/-1.6 %). In kind it is functional.
Experiment [12] relates to Plasmodium falciparum. Description: Antimalarial activity against Plasmodium falciparum infected in mouse assessed as mouse survival at 40 mg/kg, ip, qd administered 3 days post infection for 6 days measured after 6 days relative to control. In kind it is functional, organism-based. More on the design: dose 40 mg/kg.

The structures appear in SMILES notation. Active and inactive are the calls of the source. No cut-off for these calls is given here.

On to `CC(C)c1c(C(=O)Nc2ccccc2)c(-c2ccccc2)c(-c2ccc(F)cc2)n1CC[C@@H](O)C[C@@H](O)CC(=O)O` [ATORVASTATIN], for which the Activity in the experiment on Plasmodium falciparum [1] was determined as 9.5%. Further, the Survival result in the experiment on Plasmodium falciparum [2] is “inactive”.
Regarding `CC[C@H](C)C(=O)O[C@H]1C[C@H](O)C=C2C=C[C@H](C)[C@H](CC[C@@H](O)C[C@@H](O)CC(=O)O)[C@H]21` [PRAVASTATIN], the Activity with Plasmodium falciparum [3] is on record as 11.8%; in the experiment on Plasmodium falciparum [6] it was 11.5%. In addition, the Survival result with Plasmodium falciparum [4] and in the experiment with Plasmodium falciparum [5] was “inactive” in each case.
`CC(C)n1c(/C=C/C(O)CC(O)CC(=O)O)c(-c2ccc(F)cc2)c2ccccc21` (configuration not stated) [FLUVASTATIN]: the Activity in the experiment on Plasmodium falciparum [7] and in the experiment on Plasmodium falciparum [8] was 7.4% each time. For the same molecule, the Survival entry with Plasmodium falciparum [9] and in the experiment on Plasmodium falciparum [10] was “inactive” throughout.
Consider `CCC(C)(C)C(=O)O[C@H]1C[C@@H](C)C=C2C=C[C@H](C)[C@H](CC[C@@H]3C[C@@H](O)CC(=O)O3)[C@H]21` [SIMVASTATIN], for which, in the experiment on Plasmodium falciparum [11], the Activity was 8.5%. For the same molecule, the Survival result in the experiment on Plasmodium falciparum [12] is “inactive”.
